Measurements published in patent publication US20230192661A1, “1, 4, 5, 6-TETRAHYDROPYRIMIDINE-2-AMINE DERIVATIVE” (UBE Corporation, priority 2020, published 2023).

Test system: TGF-β activation (phosphorylated SMAD3)
Assay: TGF-β activation inhibition test (inhibition of SMAD3 phosphorylation in TFK-1 cells)
Format: cell-based
Settings: 48 h, fibronectin-coated plate, cultured 2 days, read-out: IC50 (rate of inhibition of phosphorylated SMAD3)
Experimental: In Test Example 3, the inhibition of TGF-β activation by a compound was detected with the inhibition of SMAD3 phosphorylation as an index. In Test Example 3, the same reagents as in Test Example 1 were used unless otherwise specified.
Human fibronectin was prepared at 14 μg/mL with PBS and then dispensed at 50 μL/well to a 96-well plate. The plate was left standing at room temperature for 1 hour or longer, followed by the removal of the fibronectin solution. The plate was washed with PBS and used as a coated plate.
A test compound dissolved in DMSO was added to RPMI medium 1640 (manufactured by Thermo Fisher Scientific, Inc., 11875) containing 1% FBS and 1% penicillin/streptomycin/amphotericin B to prepare a medium containing the test compound having a concentration of two times the final concentration. This medium was added at 100 μL/well to the coated plate. TFK-1 cells (Cell Resource Center for Biomedical Research, Institute of Development, Aging and Cancer, Tohoku University) cultured in RPMI medium 1640 containing 10% FBS and 1% penicillin/streptomycin/amphotericin B were suspended in RPMI medium 1640 containing 1% FBS and 1% penicillin/streptomycin/amphotericin B to prepare a cell suspension of 1×10^6 cells/mL. The prepared cell suspension was further added at 100 μL/well and cultured for 2 days in a 5% CO2 incubator (37° C.).
Phosphorylated SMAD3 in the cells thus cultured for 2 days was measured using Phospho-SMAD3 (Ser423/425) cellular kit (manufactured by cisbio, 63ADK025), and a DeltaF value was calculated according to the calculation expression of the kit. Inhibition when 10 μM LY364947 (FUJIFILM Wako Pure Chemical Corp., 123-05981) was added instead of the test compound was defined as 100% inhibition, and inhibition when DMSO was added instead was defined as 0% inhibition. The rate of inhibition of phosphorylated SMAD3 by the test compound was calculated according to the following expression.
Rate of inhibition of phosphorylated SMAD3 (%)=[1−{(DeltaF value in the case of adding the test compound)−(DeltaF value in the case of adding 10 μM LY364947)}/{(DeltaF value in the case of adding DMSO)−(DeltaF value in the case of adding 10 μM LY364947)}]×100
An IC50 value was calculated from the rate of inhibition of phosphorylated SMAD3 by the test compound. A: IC50<10 nM, B: 10 nM≤IC50<50 nM, C: 50 nM≤IC50<100 nM, or D: IC50≥100 nM.

Q: For O=C(O)C[C@H](NC(=O)CNC(=O)c1cc(NC2=NCC(F)CN2)c2cn[nH]c2c1)c1cc(Cl)cc(C(F)(F)F)c1 (stereo partly drawn) [Example 1-(b), (3S)-3-(3-chloro-5-(trifluoromethyl)phenyl)-3-(2-(4-((5-fluoro-1,4,5,6-tetrahydropyrimidin-2-yl)amino)-1H-indazole-6-carboxamido)acetamido)propanoic acid], which IC50 is on record?
A: < 10 nM

Q: For O=C(O)C[C@H](NC(=O)CNC(=O)c1cc(NC2=NCC(F)CN2)c2cn[nH]c2c1)c1cc(Br)cc(C(F)(F)F)c1 (stereo partly drawn) [Example 2-(b), (3S)-3-(3-bromo-5-(trifluoromethyl)phenyl)-3-(2-(4-((5-fluoro-1,4,5,6-tetrahydropyrimidin-2-yl)amino)-1H-indazole-6-carboxamido)acetamido)propanoic acid], which IC50 is on record?
A: < 10 nM

Q: O=C(O)C[C@H](NC(=O)CNC(=O)c1cc(NC2=NCC(F)CN2)c2cn[nH]c2c1)c1cc(I)cc(C(F)(F)F)c1 (stereo partly drawn) [Example 3-(b), (3S)-3-(2-(4-((5-fluoro-1,4,5,6-tetrahydropyrimidin-2-yl)amino)-1H-indazole-6-carboxamido)acetamido)-3-(3-iodo-5-(trifluoromethyl)phenyl)propanoic acid] was tested. Which IC50 did it give?
A: < 10 nM

Q: How did the IC50 turn out when Cc1cc([C@H](CC(=O)O)NC(=O)CNC(=O)c2cc(NC3=NCC(F)CN3)c3cn[nH]c3c2)cc(C(F)(F)F)c1 (stereo partly drawn) [Example 4-(b), (3S)-3-(2-(4-((5-fluoro-1,4,5,6-tetrahydropyrimidin-2-yl)amino)-1H-indazole-6-carboxamido)acetamido)-3-(3-methyl-5-(trifluoromethyl)phenyl)propanoic acid] was run?
A: < 10 nM

Q: Which IC50 does the source give for COc1cc([C@H](CC(=O)O)NC(=O)CNC(=O)c2cc(NC3=NCC(F)CN3)c3cn[nH]c3c2)cc(C(F)(F)F)c1 (stereo partly drawn) [Example 5-(b), (3S)-3-(2-(4-((5-fluoro-1,4,5,6-tetrahydropyrimidin-2-yl)amino)-1H-indazole-6-carboxamido)acetamido)-3-(3-methoxy-5-(trifluoromethyl)phenyl)propanoic acid] here?
A: 10 to 50 nM

Q: For O=C(O)C[C@H](NC(=O)CNC(=O)c1cc(NC2=NCC(F)CN2)c2cn[nH]c2c1)c1cc(F)cc(C(F)(F)F)c1 (stereo partly drawn) [Example 6-(b), (3S)-3-(2-(4-((5-fluoro-1,4,5,6-tetrahydropyrimidin-2-yl)amino)-1H-indazole-6-carboxamido)acetamido)-3-(3-fluoro-5-(trifluoromethyl)phenyl)propanoic acid], which IC50 is on record?
A: 10 to 50 nM

Q: For O=C(O)C[C@H](NC(=O)CNC(=O)c1cc(NC2=NCC(F)CN2)c2cn[nH]c2c1)c1cc(C(F)(F)F)cc(C(F)(F)F)c1 (stereo partly drawn) [Example 7-(b), (3S)-3-(3,5-bis(trifluoromethyl)phenyl)-3-(2-(4-((5-fluoro-1,4,5,6-tetrahydropyrimidin-2-yl)amino)-1H-indazole-6-carboxamido)acetamido)propanoic acid], which IC50 is on record?
A: < 10 nM

Q: For O=C(O)C[C@H](NC(=O)CNC(=O)c1cc(NC2=NCC(F)CN2)c2cn[nH]c2c1)c1cc(-n2cccn2)cc(C(F)(F)F)c1 (stereo partly drawn) [Example 8-(b), (3S)-3-(3-(1H-pyrazol-1-yl)-5-(trifluoromethyl)phenyl)-3-(2-(4-((5-fluoro-1,4,5,6-tetrahydropyrimidin-2-yl)amino)-1H-indazole-6-carboxamido)acetamido)propanoic acid], which IC50 is on record?
A: < 10 nM

Q: How did the IC50 turn out when O=C(O)C[C@H](NC(=O)CNC(=O)c1cc(NC2=NCC(F)CN2)c2cn[nH]c2c1)c1cccc(C(F)(F)F)c1F (stereo partly drawn) [Example 9-(b), (3S)-3-(2-(4-((5-fluoro-1,4,5,6-tetrahydropyrimidin-2-yl)amino)-1H-indazole-6-carboxamido)acetamido)-3-(2-fluoro-3-(trifluoromethyl)phenyl)propanoic acid] was run?
A: 50 to 100 nM

Q: Which IC50 does the source give for O=C(O)C[C@H](NC(=O)CNC(=O)c1cc(NC2=NCC(F)CN2)c2cn[nH]c2c1)c1cccc(C(F)(F)F)c1Cl (stereo partly drawn) [Example 10-(b), (3S)-3-(2-chloro-3-(trifluoromethyl)phenyl)-3-(2-(4-((5-fluoro-1,4,5,6-tetrahydropyrimidin-2-yl)amino)-1H-indazole-6-carboxamido)acetamido)propanoic acid] here?
A: ≥ 100 nM

Q: O=C(O)C[C@H](NC(=O)CNC(=O)c1cc(NC2=NCC(F)CN2)c2cn[nH]c2c1)c1cc(C(F)(F)F)ccc1F (stereo partly drawn) [Example 11-(b), (3S)-3-(2-(4-((5-fluoro-1,4,5,6-tetrahydropyrimidin-2-yl)amino)-1H-indazole-6-carboxamido)acetamido)-3-(2-fluoro-5-(trifluoromethyl)phenyl)propanoic acid] was tested. Which IC50 did it give?
A: < 10 nM

Q: O=C(O)C[C@H](NC(=O)CNC(=O)c1cc(NC2=NCC(F)CN2)c2cn[nH]c2c1)c1cc(C(F)(F)F)ccc1Cl (stereo partly drawn) [Example 12-(b), (3S)-3-(2-chloro-5-(trifluoromethyl)phenyl)-3-(2-(4-((5-fluoro-1,4,5,6-tetrahydropyrimidin-2-yl)amino)-1H-indazole-6-carboxamido)acetamido)propanoic acid] was tested. Which IC50 did it give?
A: ≥ 100 nM

Q: How did the IC50 turn out when O=C(O)C[C@H](NC(=O)CNC(=O)c1cc(NC2=NCC(F)CN2)c2cn[nH]c2c1)c1ccc(F)c(C(F)(F)F)c1 (stereo partly drawn) [Example 13-(b), (3S)-3-(2-(4-((5-fluoro-1,4,5,6-tetrahydropyrimidin-2-yl)amino)-1H-indazole-6-carboxamido)acetamido)-3-(4-fluoro-3-(trifluoromethyl)phenyl)propanoic acid] was run?
A: 10 to 50 nM

Q: Cc1ccc([C@H](CC(=O)O)NC(=O)CNC(=O)c2cc(NC3=NCC(F)CN3)c3cn[nH]c3c2)cc1C(F)(F)F (stereo partly drawn) [Example 14-(b), (3S)-3-(2-(4-((5-fluoro-1,4,5,6-tetrahydropyrimidin-2-yl)amino)-1H-indazole-6-carboxamido)acetamido)-3-(4-methyl-3-(trifluoromethyl)phenyl)propanoic acid] was tested. Which IC50 did it give?
A: < 10 nM

Q: Which IC50 does the source give for O=C(O)C[C@H](NC(=O)CNC(=O)c1cc(NC2=NCC(F)CN2)c2cn[nH]c2c1)c1cc(Cl)c(F)c(C(F)(F)F)c1 (stereo partly drawn) [Example 15-(b), (3S)-3-(3-chloro-4-fluoro-5-(trifluoromethyl)phenyl)-3-(2-(4-((5-fluoro-1,4,5,6-tetrahydropyrimidin-2-yl)amino)-1H-indazole-6-carboxamido)acetamido)propanoic acid] here?
A: < 10 nM

Q: With COc1ccc([C@H](CC(=O)O)NC(=O)CNC(=O)c2cc(NC3=NCC(F)CN3)c3cn[nH]c3c2)cc1Br (stereo partly drawn) [Example 16-(b), (3S)-3-(3-bromo-4-methoxyphenyl)-3-(2-(4-((5-fluoro-1,4,5,6-tetrahydropyrimidin-2-yl)amino)-1H-indazole-6-carboxamido)acetamido)propanoic acid] as the molecule, how does the IC50 read?
A: 10 to 50 nM

Q: Which IC50 does the source give for O=C(O)C[C@H](NC(=O)CNC(=O)c1cc(NC2=NCC(F)CN2)c2cn[nH]c2c1)c1cc(Cl)cc(Cl)c1 (stereo partly drawn) [Example 17-(b), (3S)-3-(3,5-dichlorophenyl)-3-(2-(4-((5-fluoro-1,4,5,6-tetrahydropyrimidin-2-yl)amino)-1H-indazole-6-carboxamido)acetamido)propanoic acid] here?
A: < 10 nM

Q: How did the IC50 turn out when O=C(O)C[C@H](NC(=O)CNC(=O)c1cc(NC2=NCC(F)CN2)c2cn[nH]c2c1)c1cc(Cl)cc(Br)c1 (stereo partly drawn) [Example 18-(b), (3S)-3-(3-bromo-5-chlorophenyl)-3-(2-(4-((5-fluoro-1,4,5,6-tetrahydropyrimidin-2-yl)amino)-1H-indazole-6-carboxamido)acetamido)propanoic acid] was run?
A: 10 to 50 nM

Q: For O=C(O)C[C@H](NC(=O)CNC(=O)c1cc(NC2=NCC(F)CN2)c2cn[nH]c2c1)c1cc(Br)cc(Br)c1 (stereo partly drawn) [Example 19-(b), (3S)-3-(3,5-dibromophenyl)-3-(2-(4-((5-fluoro-1,4,5,6-tetrahydropyrimidin-2-yl)amino)-1H-indazole-6-carboxamido)acetamido)propanoic acid], which IC50 is on record?
A: < 10 nM

Q: For O=C(O)C[C@H](NC(=O)CNC(=O)c1cc(NC2=NCC(F)CN2)c2cn[nH]c2c1)c1cc(Br)cc(I)c1 (stereo partly drawn) [Example 20-(b), (3S)-3-(3-bromo-5-iodophenyl)-3-(2-(4-((5-fluoro-1,4,5,6-tetrahydropyrimidin-2-yl)amino)-1H-indazole-6-carboxamido)acetamido)propanoic acid], which IC50 is on record?
A: < 10 nM

Q: How did the IC50 turn out when O=C(O)C[C@H](NC(=O)CNC(=O)c1cc(NC2=NCC(F)CN2)c2cn[nH]c2c1)c1cc(Cl)cc(I)c1 (stereo partly drawn) [Example 21-(b), (3S)-3-(3-chloro-5-iodophenyl)-3-(2-(4-((5-fluoro-1,4,5,6-tetrahydropyrimidin-2-yl)amino)-1H-indazole-6-carboxamido)acetamido)propanoic acid] was run?
A: < 10 nM
